Laboratory results taken from article PMC3472760, “New 14-Membered Cyclopeptide Alkaloids from Zizyphus oxyphylla Edgew” (International Journal of Molecular Sciences, 2012).

Legend:
[1] = system: Escherchia coli (ATCC 25922); test: Antibacterial MIC, microplate dilution with tetrazolium violet; format: cell-based, Escherichia coli; settings: compounds in DMSO serially diluted with sterile water in microplates, overnight, 37 °C, 100% relative humidity, tetrazolium violet read-out, lowest concentration inhibiting growth
Protocol: (§1) All compounds were screened for antibacterial activity against Escherchia coli (ATCC 25922), Bacillus subtilis (ATCC 6633), Shigella flexeneri (clinical isolate), Staphylococcus aureus (ATCC 25923), Pseudomonas aeruginosa (ATCC 27853), and Salmonella typhi (ATCC 19430), according to the method as reported previously. The disc diffusion technique was used to determine the antibacterial activity of the test compounds. The compounds were dissolved in DMSO to obtain a 10 mg/mL solution. A known volume ([…]) of the solution was applied on to the sterilized filter paper discs with the help of a micropipette. The discs were dried at room temperature overnight and stored in sterile dry containers. Discs, soaked with […] of DMSO, and air dried at room temperature, were used as negative control. Bacterial cultures were grown in a nutrient broth medium at 37 °C overnight and spread on to solidified nutrient agar medium in Petri plates using sterilized cotton swabs in a standard microbiological working environment. Test and control discs were then applied to the solidified medium surface with the help of sterilized forceps. The plates were incubated at 37 °C for 12–15 h. The results were recorded by measuring the zone of inhibition in mm against each compound. Impenem was used as standard drug. MIC was calculated as previously reported. Compounds were briefly dissolved in DMSO and serially diluted with sterile water in microplates in a laminar flow cabinet. The same volume of an actively rowing culture of the test bacteria was added to the different wells and cultures were grown overnight in 100% relative humidity at 37 °C. The next morning, tetrazolium violet was added to all the wells. Growth was indicated by a violet color of the culture. The lowest concentration of the test solution that led to an inhibition of growth was taken as the MIC. The negative control DMSO had no influence on the growth at the highest concentration used. Impenem was used as controls for comparison (See Table 1).

[2] = system: tested bacterial pathogens; test: Antibacterial activity, overall verdict over the panel; format: cell-based; settings: verdict over the six tested bacterial pathogens of Table 2
Protocol: as §1

[3] = system: Shigella flexeneri (clinical isolate); test: Antibacterial MIC, microplate dilution with tetrazolium violet; format: cell-based; settings: compounds in DMSO serially diluted with sterile water in microplates, overnight, 37 °C, 100% relative humidity, tetrazolium violet read-out
Protocol: as §1

[4] = system: Bacillus subtilis (ATCC 6633); test: as above; format: cell-based; settings: compounds in DMSO serially diluted with sterile water in microplates, overnight, 37 °C, 100% relative humidity, tetrazolium violet read-out
Protocol: as §1

[5] = system: Staphylococcus aureus (ATCC 25923); test: as above; format: cell-based; settings: compounds in DMSO serially diluted with sterile water in microplates, overnight, 37 °C, 100% relative humidity, tetrazolium violet read-out
Protocol: as §1

[6] = system: Salmonella typhi (ATCC 19430); test: as above; format: cell-based; settings: compounds in DMSO serially diluted with sterile water in microplates, overnight, 37 °C, 100% relative humidity, tetrazolium violet read-out
Protocol: as §1

[7] = system: Pseudomonas aeruginosa (ATCC 27853); test: as above; format: cell-based; settings: compounds in DMSO serially diluted with sterile water in microplates, overnight, 37 °C, 100% relative humidity, tetrazolium violet read-out
Protocol: as §1

Compound | Minimum Inhibitory Concentration (MIC), Escherichia coli [1] [µg/mL] | Antibacterial activity (in words) [2] | Minimum Inhibitory Concentration (MIC), Shigella flexeneri [3] [µg/mL] | Minimum Inhibitory Concentration (MIC), Bacillus subtilis [4] [µg/mL] | Minimum Inhibitory Concentration (MIC), Staphylococcus aureus [5] [µg/mL] | Minimum Inhibitory Concentration (MIC), Salmonella typhi [6] [µg/mL] | Minimum Inhibitory Concentration (MIC), Pseudomonas aeruginosa [7] [µg/mL] | Minimum Inhibitory Concentration (MIC), Salmonella typhi ([6]; listed as Oxyphylline B (4)) [µg/mL]
CCC(C)C1NC(=O)C2C(CCN2C(=O)C(Cc2c[nH]c3ccccc23)N(C)C)Oc2ccc(OC)c(c2)/C=C/NC1=O (stereo not drawn) [Compound 3, nummularin-R] | 25 | low antibacterial activities | 100 | 10 | 50 | 50 | 100 | –
C[C@@H](O)[C@H]1C(=O)N2C(C(=O)O)=C(SCCN=CN)C[C@H]12 [Standard, Impenem, reference compound] | 0.0002 | – | 0.0003 | 0.0005 | 0.0009 | 0.0014 | 0.0021 | –
Oxyphylline B [Compound 4] | 5 | – | 25 | – | 25 | – | 50 | 50
Oxyphylline C [Compound 5] | 10 | low antibacterial activities | 50 | 50 | 10 | 50 | 50 | –
Oxyphylline D [Compound 1] | 10 | low antibacterial activities | 50 | 25 | 25 | 25 | 50 | –
nummularin-C [Compound 2] | 10 | low antibacterial activities | 100 | 25 | 25 | 10 | 100 | –
